Test results reported in patent publication US6407104B1, “Pyrrolo[1,2-a]pyrazine spla2 inhibitor” (Shionogi & Co., Ltd., priority 1998, dated 2002).

Tests used:
[1] = target: T1, recombinant human secretory phospholipase A2 (Homo sapiens, UniProt P14555); assay: Inhibition Test of Human Secretory Phospholipase A2 (chromogenic assay); type: biochemical; details: sPLA2 50 ng/well, 40° C., 30 minutes, OD 405 nm, 96 well microtiterplate
T1 sequence (P14555 21-144): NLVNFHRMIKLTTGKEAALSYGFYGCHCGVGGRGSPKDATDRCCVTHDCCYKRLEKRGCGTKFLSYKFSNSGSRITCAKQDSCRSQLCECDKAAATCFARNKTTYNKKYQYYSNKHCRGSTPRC
From the text: Test Example: Inhibition Test of Human Secretory Phospholipase A2
In order to identify and evaluate an inhibitor of recombinant human secretory phospholipase A2, the following chromogenic assay is utilized. The assay herein has been applied for high volume screening wherein 96 well microtiterplate is used. A general explanation for such assay is described in “Analysis of Human Synovial Fluid Phospholipase A2 on Short Chain Phosphatidylcholine-Mixed Micelles: Development of a Spectrophotometric Assay Suitable for a Micortiterplate Reader” (Analytical Biochemistry, 204, pp 190-197, 1992 by Laure. J. Reynolds. Lori L. Hughes and Edward A. Dennis: the disclosure of which is incorporated herein for reference.
pH 7.5 (adjusted with NaOH)
pH 4.5 (adjusted with acetic acid)
1 mg of sPLA2 is dissolved in 1 ml of an enzyme buffer. Thereafter, the solution is maintained at 4° C.
In the assay, 5 μl of the solution is diluted with 1995 μl of the reaction buffer to be used.
198 mg of 5,5′-dithiobis-2-[…] (manufactured by Wako Pure Chemicals) is dissolved in 100 ml of H2O
H 7.5 (adjusted with NaOH)
100 mg of racemic 1,2-bis(heptanoylthio)-1,2-dideoxy-sn-glycero-3-phospholylcholine is dissolved in 1 ml of chloroform.
624.9 mg of Triton-X 100 is dissolved in the reaction buffer.
Enzyme Reaction: for 1 Plate of Microtiterplate
1) 0.106 ml of the substrate solution is put in a centrifugal tube, and nitrogen gas is jetted to remove the solvent. 0.54 ml of Triton-X 100 is added thereto, the mixture is stirred, thereafter it is sonified in a bath type sonification to dissolve. To the resulting product are added 17.8 ml of the reaction buffer and 0.46 ml of DTNB, and 0.18 ml each of the admixture is poured to wells of the 96 well microtiterplate.
2) 10 μl of a test compound (or solvent blank) are added in accordance with alignment of plates which has been previously set.
3) Incubation is effected at 40° C. for 15 minutes.
4) 20μl of an enzyme solution (sPLA2) which has been previously diluted (50 ng/well) are added to start reaction (40° C., 30 minutes).
5) Changes in absorbancy for 30 minutes are measured by a plate reader, and inhibition activity was calculated (OD: 405 nm).
6) IC50 was determined by plotting log concentration with respect to inhibition values within 10% to 90% inhibiting range.

CCCCCOC(=O)COc1nc(C)cn2c(Cc3ccc(F)cc3)c(CC)c(C(=O)C(N)=O)c12 [Compound I-94]
IC50 [1]: 650 nM
melting point: 175 to 176 °C

CCc1c(C(=O)C(N)=O)c2c(OCC(=O)OCCN3CCOCC3)nc(C)cn2c1Cc1ccc(F)cc1 [Compound I-95]
IC50 [1]: 175 nM
melting point: 139 to 140 °C
